The record followed here is US8987314B2, “Amide, urea or sulfone amide linked benzothiazole inhibitors of endothelial lipase” (Bristol-Myers Squibb Company, priority 2012, dated 2015).

Assay [1] addresses Endothelial lipase (EL) (Homo sapiens (Human), UniProt Q9Y5X9). The assay is described as follows: EL assay: endothelial lipase activity with fluorescent substrate A10070 in DMPG vesicles. In kind it is biochemical. Summed up:
(§1)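 Substrate A10070 sits in sonicated DMPG vesicles at 0.11 mole fraction. Lipase and compound preincubated 30 min, 37° C, in HEPES pH 8.0 buffer with CaCl2.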

Assay [2] addresses hepatic lipase (HL) (Homo sapiens (Human), UniProt P11150). The assay is described as follows: HL assay: hepatic lipase activity with fluorescent substrate A10070 in DMPG vesicles. In kind it is biochemical. In a few lines:
as §1

hepatic lipase (HL), sequence (P11150 23-499, species assumed): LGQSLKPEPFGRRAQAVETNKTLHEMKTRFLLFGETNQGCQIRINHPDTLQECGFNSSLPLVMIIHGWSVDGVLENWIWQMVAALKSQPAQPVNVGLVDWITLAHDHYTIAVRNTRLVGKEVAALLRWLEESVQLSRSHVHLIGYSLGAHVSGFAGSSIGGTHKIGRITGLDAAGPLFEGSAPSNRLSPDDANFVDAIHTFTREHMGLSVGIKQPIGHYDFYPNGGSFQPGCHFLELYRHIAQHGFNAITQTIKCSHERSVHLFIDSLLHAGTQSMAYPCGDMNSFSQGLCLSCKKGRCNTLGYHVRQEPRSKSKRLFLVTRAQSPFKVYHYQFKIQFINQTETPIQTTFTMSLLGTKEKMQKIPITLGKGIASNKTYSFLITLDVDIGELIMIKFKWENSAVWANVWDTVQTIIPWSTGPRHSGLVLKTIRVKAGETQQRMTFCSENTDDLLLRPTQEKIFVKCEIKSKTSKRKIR
Endothelial lipase (EL), sequence (Q9Y5X9 21-500): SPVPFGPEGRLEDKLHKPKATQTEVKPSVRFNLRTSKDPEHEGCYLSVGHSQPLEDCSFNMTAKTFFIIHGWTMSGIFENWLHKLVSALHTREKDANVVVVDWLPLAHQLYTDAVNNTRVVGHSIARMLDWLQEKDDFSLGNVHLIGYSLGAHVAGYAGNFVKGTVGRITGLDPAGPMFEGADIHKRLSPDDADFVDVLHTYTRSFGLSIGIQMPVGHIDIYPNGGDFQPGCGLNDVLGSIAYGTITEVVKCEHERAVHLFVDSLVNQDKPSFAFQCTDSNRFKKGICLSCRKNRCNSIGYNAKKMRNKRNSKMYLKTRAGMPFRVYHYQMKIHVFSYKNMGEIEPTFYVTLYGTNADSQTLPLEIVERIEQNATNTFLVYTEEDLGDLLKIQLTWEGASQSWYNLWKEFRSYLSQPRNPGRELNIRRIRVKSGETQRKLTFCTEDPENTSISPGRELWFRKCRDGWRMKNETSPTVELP

For the compound `CC(C)S(=O)(=O)C(C(=O)NCCS(N)(=O)=O)c1nc2cc(-c3ccc(F)nc3)ccc2s1` (stereo not drawn) [Example B312, 2-[5-(6-fluoropyridin-3-yl)-1,3-benzothiazol-2-yl]-2-(propane-2-sulfonyl)-N-(2-sulfamoylethyl)a-cetamide], the IC50 in assay [1] worked out at 6.2 nM; in assay [2], 153 nM.

In the case of `NS(=O)(=O)CCNC(=O)C(c1nc2ccc(-c3ccc(F)nc3)cc2s1)S(=O)(=O)CCN1CCOCC1` (stereo not drawn) [Example B313, 2-[6-(6-fluoropyridin-3-yl)-1,3-benzothiazol-2-yl]-2-[2-(morpholin-4-yl)ethanesulfonyl]-N-(2-sulfamoylethyl)acetamide], the IC50 in assay [1] was 10.8 nM; in assay [2], 106 nM.

`NS(=O)(=O)CCNC(=O)C(c1nc2ccc(-c3ccc(CO)cc3)cc2s1)S(=O)(=O)CCN1CCOCC1` (stereo not drawn) [Example B314, 2-{6-[4-(hydroxymeth-yl)phenyl]-1,3-benzothiazol-2-yl}-2-[2-(morpholin-4-yl)ethanesulfonyl]-N-(2-sulfamoylethyl)acetamide]: the results for the IC50 in assay [1] and in assay [2] were 16.1 nM and 35.1 nM, respectively.

In the case of `NS(=O)(=O)CCNC(=O)C(c1nc2ccc(-c3cncnc3)cc2s1)S(=O)(=O)CCN1CCOCC1` (stereo not drawn) [Example B315, 2-[2-(morpholin-4-yl)ethanesulfonyl]-2-[6-(pyrimidin-5-yl)-1,3-benzothiazol-2-yl]-N-(2-sulfamoylethyl)acetamide], the IC50 in assay [1] is 55.6 nM; in assay [2], 10000 nM.

`NS(=O)(=O)CCNC(=O)C(c1nc2ccc(-c3ccc(C(F)(F)F)nc3)cc2s1)S(=O)(=O)CCN1CCOCC1` (stereo not drawn) [Example B316, 2-[2-(morpholin-4-yl)ethanesulfonyl]-N-(2-sulfamoylethyl)-2-{6-[6-(trifluoromethyl)pyridin-3-yl]-1,3-benzothiazol-2-yl}acetamide]: the IC50 is 145 nM in assay [1] and 399 nM in assay [2].

Regarding `CS(=O)(=O)C(C(=O)NCCS(N)(=O)=O)c1nc2ccc(-c3cnn(CCC4CCOCC4)c3)cc2s1` (stereo not drawn) [Example B317, 2-methanesulfonyl-2-(6-{1-[2-(oxan-4-yl)ethyl]-1H-pyrazol-4-yl}-1,3-benzothiazol-2-yl)-N-(2-sulfamoylethyl)acetamide], the IC50 in assay [1] is 13 nM; in assay [2], 391 nM.

Turning to `CC1(O)CN(C(=O)c2ccc(-c3ccc4nc(C(C(=O)NCCS(N)(=O)=O)S(C)(=O)=O)sc4c3)cc2)C1` (stereo not drawn) [Example B318, 2-{6-[4-(3-hydroxy-3-methylazetidine-1-carbonyl)phenyl]-1,3-benzothiazol-2-yl}-2-methanesulfonyl-N-(2-sulfamoylethyl)acetamide], the IC50 in assay [1] is 1.8 nM; in assay [2] it was 911 nM.

For the compound `CC1(O)CN(C(=O)c2ccc(-c3ccc4sc(C(C(=O)NCCS(N)(=O)=O)S(C)(=O)=O)nc4c3)cc2)C1` (stereo not drawn) [Example B319, 2-{5-[4-(3-hydroxy-3-methylazetidine-1-carbonyl)phenyl]-1,3-benzothiazol-2-yl}-2-methanesulfonyl-N-(2-sulfamoylethyl)acetamide], the values for the IC50 in assay [1] and in assay [2] were 4.8 nM and 1000 nM, respectively.

Turning to `CC1(O)CN(C(=O)c2ccc(-c3ccc4nc(C(C(=O)NCCS(N)(=O)=O)S(=O)(=O)CCC(F)(F)F)sc4c3)cc2)C1` (stereo not drawn) [Example B320, 2-{6-[4-(3-hydroxy-3-methylazetidine-1-carbonyl)phenyl]-1,3-benzothiazol-2-yl}-N-(2-sulfamoylethyl)-2-(3,3,3-trifluoropropanesulfonyl)a-cetamide], the IC50 was found to be 1.9 nM in assay [1] and 1260 nM in assay [2].

For the compound `CS(=O)(=O)C(C(=O)NCCS(N)(=O)=O)c1nc2cc(-c3ccc(C(=O)N4CC(F)(F)C4)cc3)ccc2s1` (stereo not drawn) [Example B321, 2-{5-[4-(3,3-difluoroazetidine-1-carbonyl)phenyl]-1,3-benzothiazol-2-yl}-2-methanesulfonyl-N-(2-sulfamoylethyl)acetamide], the IC50 in assay [1] was 0.6 nM; in assay [2] it was 175 nM.

As for `CC1(O)CN(C(=O)c2ccc(-c3ccc4nc(C(C(=O)NCCS(N)(=O)=O)S(=O)(=O)Cc5ccc(C(F)(F)F)cc5)sc4c3)cc2)C1` (stereo not drawn) [Example B322, 2-{6-[4-(3-hydroxy-3-methylazetidine-1-carbonyl)phenyl]-1,3-benzothiazol-2-yl}-N-(2-sulfamoylethyl)-2-{[4-(trifluoromethyl)phen-yl]methanesulfonyl}a-cetamide], the IC50 in assay [1] came to 2.4 nM; in assay [2], 37.4 nM.

Take `CC1(O)CN(C(=O)c2ccc(-c3ccc4nc(C(C(=O)NCCS(N)(=O)=O)S(=O)(=O)Cc5ccc(OC(F)(F)F)cc5)sc4c3)cc2)C1` (stereo not drawn) [Example B323, 2-{6-[4-(3-hydroxy-3-methylazetidine-1-carbonyl)phenyl]-1,3-benzothiazol-2-yl}-N-{2-sulfamoylethyl)-2-{[4-(trifluoromethoxy)phen-yl]methanesulfonyl}a-cetamide]: the IC50 in assay [1] was 2.6 nM; in assay [2], 81.7 nM.

On to `NS(=O)(=O)CCNC(=O)C(c1nc2ccc(-c3ccc(C(=O)N4CCC(F)(F)C4)cc3)cc2s1)S(=O)(=O)Cc1ccc(OC(F)(F)F)cc1` (stereo not drawn) [Example B324, 2-{6-[4-(3,3-difluoropyrrolidine-1-carbonyl)phen-yl]-1,3-benzothiazol-2-yl}-N-(2-sulfamoyl-ethyl)-2-{[4-(trifluoro-methoxy)phen-yl]methanesulfonyl}a-cetamide], for which the IC50 in assay [1] came to 9.1 nM; in assay [2], 58.1 nM.

Regarding `Cc1cc2nc(C(C(=O)NCCS(N)(=O)=O)S(=O)(=O)Cc3ccccc3)sc2cc1-c1ccc(C(=O)O)cc1` (stereo not drawn) [Example B325, 4-(5-methyl-2-{phen-ylmethanesulfonyl[(2-sulfa-moylethyl)carbamoyl]meth-yl}-1,3-benzothiazol-6-yl)benzoic acid], the values for the IC50 in assay [1] and in assay [2] were 1.2 nM and 104 nM, respectively.

On to `Cc1cc2nc(C(C(=O)NCCS(N)(=O)=O)S(C)(=O)=O)sc2cc1-c1ccc(C(=O)O)cc1` (stereo not drawn) [Example B326, 4-(2-{methanesulfonyl[(2-sulfamoylethyl)carba-moyl]methyl}-5-methyl-1,3-benzothiazol-6-yl)benzoic acid], for which the IC50 worked out at 1.6 nM in assay [1] and 201 nM in assay [2].

Turning to `CS(=O)(=O)C(C(=O)NCCS(N)(=O)=O)c1nc2ccc(-c3ccc(C(=O)N4CC[C@H](O)C4)cc3)cc2s1` (stereo partly drawn) [Example B328, 2-(6-{4-[(3S)-3-hydroxypyrrolidine-1-carbonyl]phen-yl}-1,3-benzothiazol-2-yl)-2-methanesulfonyl-N-(2-sulfamoylethyl)a-cetamide], the IC50 in assay [1] was 4 nM; in assay [2], 2620 nM.

Turning to `CS(=O)(=O)C(C(=O)NCCS(N)(=O)=O)c1nc2ccc(-c3ccc(C(=O)N4CC[C@@H](O)C4)cc3)cc2s1` (stereo partly drawn) [Example B329, 2-(6-{4-[(3R)-3-hydroxy-pyrrolidine-1-carbonyl]phen-yl}-1,3-benzothiazol-2-yl)-2-methanesulfonyl-N-(2-sulfamoylethyl)a-cetamide], the IC50 in assay [1] stood at 1.8 nM; in assay [2], 262 nM.

Consider `CS(=O)(=O)C(C(=O)NCCS(N)(=O)=O)c1nc2ccc(-c3ccc(C(=O)N4CC(F)C4)cc3)cc2s1` (stereo not drawn) [Example B330, 2-{6-[4-(3-fluoroazetidine-1-carbonyl)phenyl]-1,3-benzothiazol-2-yl}-2-methanesulfonyl-N-(2-sulfamoylethyl)acetamide], for which the concentration for half-maximal inhibition (IC50) in assay [1] is 0.7 nM; in assay [2] it was 46.7 nM.

As to `NC(=O)c1cccc(-c2ccc3nc(C(C(=O)NCCS(N)(=O)=O)S(=O)(=O)CCC(F)(F)F)sc3c2)c1` (stereo not drawn) [Example B331, 3-(2-{[(2-sulfamoylethyl)car-bamoyl](3,3,3-trifluoro-propanesulfonyl)methyl}-1,3-benzothiazol-6-yl)benzamide], the values for the IC50 in assay [1] and in assay [2] were 72.5 nM and 214 nM, respectively.

For `NS(=O)(=O)CCNC(=O)C(c1nc2ccc(-c3cccc(C(=O)N4CCC(O)CC4)c3)cc2s1)S(=O)(=O)CCC(F)(F)F` (stereo not drawn) [Example B332, 2-{6-[3-(4-hydroxy-piperidine-1-carbonyl)phen-yl]-1,3-benzothiazol-2-yl}-N-(2-sulfamoyl-ethyl)-2-(3,3,3-trifluoro-propanesulfonyl)acetamide], the IC50 was determined as 1.5 nM in assay [1] and 136 nM in assay [2].

Regarding `NS(=O)(=O)CCNC(=O)C(c1nc2ccc(-c3cccc(C(=O)N4CCOCC4)c3)cc2s1)S(=O)(=O)CCC(F)(F)F` (stereo not drawn) [Example B333, 2-{6-[3-(morpholine-4-carbonyl)phenyl]-1,3-benzothiazol-2-yl}-N-(2-sulfamoylethyl)-2-(3,3,3-trifluoropropanesulfon-yl)acetamide], the IC50 in assay [1] is 9.8 nM; in assay [2] it was 119 nM.

Regarding `NS(=O)(=O)CCNC(=O)C(c1nc2ccc(-c3cccc(C(=O)N4CC(F)(F)C4)c3)cc2s1)S(=O)(=O)CCC(F)(F)F` (stereo not drawn) [Example B334, 2-{6-[3-(3,3-difluoro-azetidine-1-carbonyl)phen-yl]-1,3-benzothiazol-2-yl}-N-(2-sulfamoyl-ethyl)-2-(3,3,3-trifluoro-propanesulfonyl)acetamide], the figures for the IC50 in assay [1] and in assay [2] were 14.2 nM and 60.4 nM, respectively.

For the compound `NS(=O)(=O)CCNC(=O)C(c1nc2ccc(-c3cccc(C(=O)N4CCCC(F)(F)C4)c3)cc2s1)S(=O)(=O)CCC(F)(F)F` (stereo not drawn) [Example B335, 2-{6-[3-(3,3-difluoro-piperidine-1-carbonyl)phen-yl]-1,3-benzothiazol-2-yl}-N-(2-sulfamoyl-ethyl)-2-(3,3,3-trifluoro-propanesulfonyl)acetamide], the IC50 in assay [1] turned out to be 5.5 nM; in assay [2] it was 14.7 nM.

On to `NS(=O)(=O)CCNC(=O)C(c1nc2ccc(-c3cccc(C(=O)N4CC(F)C4)c3)cc2s1)S(=O)(=O)CCC(F)(F)F` (stereo not drawn) [Example B336, 2-{6-[3-(3-fluoroazetidine-1-carbonyl)phenyl]-1,3-benzothiazol-2-yl}-N-(2-sulfamoylethyl)-2-(3,3,3-trifluoropropanesulfonyl)a-cetamide], for which the IC50 was 8.2 nM in assay [1] and 22.6 nM in assay [2].
